Test results reported in patent publication US12036237B2, “Bromide source for use in treating autism spectral disorder” (INSERM (INSTITUT NATIONAL DE LA SANTE ET DE LA RECHERCHE …, priority 2016, dated 2024).
“Also recorded” adds a separate entry of the source.

Legend:
[1] = literature statement (Romermann et al, 2017); cited from earlier work
Oprm1−/− mice [2] = test: Y-maze exploration; conditions: bumetanide 0.5 mg/kg i.p. daily; for rate of same arm returns (cognitive stereotypies): Oprm1−/− mice
Oprm1−/− mice [3] = test: Marble burying test; conditions: bumetanide 0.5 mg/kg i.p. daily
Oprm1−/− mice [4] = test: Motor stereotypies scoring; conditions: bumetanide 0.5 mg/kg i.p. daily
Oprm1−/− mice [5] = test: Direct social interaction test; conditions: Oprm1−/− mice, bumetanide 0.5 mg/kg i.p. daily vs saline
Oprm1−/− mice [6] = test: Novelty-suppressed feeding test
Oprm1−/− mice [7] = test: Three-chamber social novelty preference test; conditions: bumetanide 0.5 mg/kg i.p. daily vs saline

CCCCNc1cc(C(=O)O)cc(S(N)(=O)=O)c1Oc1ccccc1 [bumetanide, Bumetanide]
ability to cross the blood brain barrier [1]: inability; also recorded: low ability to cross the blood brain barrier | rate of same arm returns (cognitive stereotypies) (Oprm1−/− mice [2]): reduced | rate of same arm returns (cognitive stereotypies) (Oprm1−/− mice [2]; listed as Bumetanide): reduced cognitive stereotypies; also recorded: similarly reduced | rates of spontaneous alternation and alternate arm returns (Oprm1−/− mice [2]; all animals): did not modify | number of marbles buried (Oprm1−/− mice [3]): did not significantly modify | circling episodes (Oprm1−/− mice [4]; Oprm1−/− mice): efficiently suppressed | stereotypic behaviour / motor stereotypies (overall) (Oprm1−/− mice [4]; Oprm1−/− mice): efficiently relieved stereotypic behaviour | stereotypic shakes (Oprm1−/− mice [4]; Oprm1−/− mice): efficiently suppressed | stereotypic behaviour / motor stereotypies (overall) (Oprm1−/− mice [4]; Oprm1−/− mice, listed as Bumetanide): suppressed motor stereotypies | duration of burying episodes (Oprm1−/− mice [4]; all mice): no significant effect | number of and time spent in burying episodes (Oprm1−/− mice [4]; all mice): increased | number of rearing and grooming episodes (Oprm1−/− mice [4]; mutant or wild-type): did not change | number of and time spent in grooming episodes (Oprm1−/− mice [5]): only effective in reducing the number of grooming episodes | number of grooming episodes following a social contact (Oprm1−/− mice [5]): only effective in reducing the number of grooming episodes | number of nose contacts (Oprm1−/− mice [5]): no significant effect | number of, time spent in and duration of paw contacts (Oprm1−/− mice [5]): no significant effect | social interaction (overall) (Oprm1−/− mice [5]): only partially restored social interaction | time spent in and duration of nose contacts (Oprm1−/− mice [5]): increased, but failed to completely rescue | time spent in social contact (Oprm1−/− mice [5]): increased, but failed to completely rescue | number of and time spent in grooming episodes (Oprm1−/− mice [5]; listed as Bumetanide): normalized | number of grooming episodes following a social contact (Oprm1−/− mice [5]; listed as Bumetanide): normalized | food intake back in the home cage (Oprm1−/− mice [6]; Oprm1 line, bumetanide 0.5 mg/kg i.p. daily): did not modify significantly | feeding latency (Oprm1−/− mice [6]; Oprm1−/− mice, bumetanide 0.5 mg/kg i.p. daily): did not modify significantly | behavioural signs of anxiety (overall) (Oprm1−/− mice [6]; Oprm1−/− mice, marble burying and novelty-suppressed feeding, bumetanide 0.5 mg/kg): did not show effects | difference (mouse over toy) in number of nose contacts (Oprm1−/− mice [7]): restored the difference; also recorded: increased | difference (preference for the mouse over the toy) in time spent in compartments (Oprm1−/− mice [7]): restored the difference; also recorded: successfully restored | duration of close contacts with the living mouse (Oprm1−/− mice [7]): unable to reverse the deficit; also recorded: failed to restore | time spent in close contacts with the living mouse (Oprm1−/− mice [7]): unable to reverse the deficit; also recorded: absence of effect
